Results from patent US20240043435A1, “TYK-2 INHIBITOR” (BEIGENE, LTD., priority 2020, published 2024).

Columns and labels:
[1] = target: T1, TYK2-JH2 (aa 575-869, in-house) protein (Homo sapiens, UniProt P29597); test: TYK2-JH2 biochemical assay (HTRF probe displacement); type: binding; settings: Biochemical assay; read-out: TYK2-JH2 IC50
T1 construct: TYK2-JH2 (aa 575-869, in-house) protein; made in house
Method in brief: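 Recombinant TYK2-JH2 (0.2 nM) was pre-incubated 0.5 h at room temperature with compounds (10 doses, 5-fold dilution; 500× DMSO stocks from 500 uM) in 20 mM HEPES pH 7.5, 10 mM MgCl2, 0.005% BSA, 2 mM DTT, 0.015% Brij-35. Probe displacement was read by HTRF (ex337, em620/665 nm); IC50 from four-parameter logistic fit.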

[2] = tested on: JAK2, TYK2/p-STAT4 (Tyr693) activated by IL-12 in NK-92 cell line; test: IL-12-JAK2, TYK2/p-STAT4 (Tyr693) inhibition IC50 cellular assay; type: cell-based; settings: for IC50: NK92, Cellular assay, read-out: pSTAT4/IL-12 IC50; for Selectivity fold (TYK2/JAK2): Cellular assay, pSTAT5/GM-CSF IC50 vs pSTAT4/IL-12 IC50
Method in brief: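 NK-92 cells were starved overnight without IL-2 and preincubated 1 h at 37° C with compound (8 doses, 10000–0.61 nM, 4-fold, 0.2% DMSO). They were then stimulated with IL-12 (40 ng/ml final) for 30 min. Lysate p-STAT4 (Tyr693) was read by AlphaLISA SureFire; IC50 from four-parameter logistic fit.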

pSTAT5/GM-CSF = pSTAT5/GM-CSF cellular assay (JAK2 selectivity); type: cell-based; settings: for Selectivity fold (TYK2/JAK2): pSTAT5/GM-CSF IC50 over pSTAT4/IL-12 IC50

T1 sequence (P29597 575-869): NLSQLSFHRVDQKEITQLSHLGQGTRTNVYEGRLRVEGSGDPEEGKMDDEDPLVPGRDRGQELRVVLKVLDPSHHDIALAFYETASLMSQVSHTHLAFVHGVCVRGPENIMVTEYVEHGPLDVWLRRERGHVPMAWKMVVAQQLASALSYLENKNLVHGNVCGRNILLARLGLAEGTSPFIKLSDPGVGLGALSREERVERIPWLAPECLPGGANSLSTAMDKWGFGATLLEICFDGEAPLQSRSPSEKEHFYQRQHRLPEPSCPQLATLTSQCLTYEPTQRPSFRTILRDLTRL

In the case of `CC(=O)Nc1cc(Nc2cc(OCC(O)CO)cc(S(C)(=O)=O)n2)c(-c2ccn(C)n2)cn1` (stereo not shown) [Example J48, N-(4-((4-(2,3-dihydroxypropoxy)-6-(methylsulfonyl)pyridin-2-yl)amino)-5-(1-methyl-1H-pyrazol-3-yl)pyridin-2-yl)acetamide], the IC50 [1] is reported as 0.035 nM, the IC50 [2] is reported as 70.2 nM and the IC50 (pSTAT5/GM-CSF) is reported as greater than 10000 nM. The “Selectivity fold (TYK2/JAK2)” value (pSTAT5/GM-CSF) was greater than 1421411 fold.

`CC(=O)Nc1cc(Nc2cc(OCC#N)cc(S(C)(=O)=O)n2)c(-c2ccn(C)n2)cn1` [Example J20, N-(4-((4-(cyanomethoxy)-6-(methylsulfonyl)pyridin-2-yl)amino)-5-(1-methyl-1H-pyrazol-3-yl)pyridin-2-yl)acetamide] was tested, and the IC50 [1] was 0.026 nM, the IC50 [2] was 3 nM and the IC50 (pSTAT5/GM-CSF) was greater than 10000 nM. For the same molecule, the “Selectivity fold (TYK2/JAK2)” value (pSTAT5/GM-CSF) was greater than 3333 fold.

`CC(=O)Nc1cc(Nc2cc(OCCO)cc(S(C)(=O)=O)c2)c(-c2cc(C)n(C)n2)cn1` [Example N3, N-(5-(1,5-dimethyl-1H-pyrazol-3-yl)-4-((3-(2-hydroxyethoxy)-5-(methylsulfonyl)phenyl)amino)pyridin-2-yl)acetamide] was tested, and the IC50 [1] was 0.033 nM, the IC50 [2] was 12.6 nM and the IC50 (pSTAT5/GM-CSF) was greater than 10000 nM. The “Selectivity fold (TYK2/JAK2)” value (pSTAT5/GM-CSF) was greater than 791 fold.

In the case of `CC(=O)Nc1cc(Nc2cc(OCCO)cc(S(C)(=O)=O)n2)c(-c2ccccn2)cn1` [Example B7, N-(4′-((4-(2-hydroxyethoxy)-6-(methylsulfonyl)pyridin-2-yl)amino)-[2,3′-bipyridin]-6′-yl)acetamide], the IC50 [1] is reported as 0.016 nM, the “Selectivity fold (TYK2/JAK2)” value [2] is reported as greater than 1792 fold and the IC50 [2] is reported as 5.58 nM. It also gave an IC50 (pSTAT5/GM-CSF) greater than 10000 nM.

Molecule `CC(=O)Nc1cc(Nc2cc(OC[C@@H](C)O)cc(S(C)(=O)=O)c2)c(-c2ccn(C)n2)cn1` [Example J57, (R)-N-(4-((3-(2-hydroxypropoxy)-5-(methylsulfonyl)phenyl)amino)-5-(1-methyl-1H-pyrazol-3-yl)pyridin-2-yl)acetamide] has an IC50 [1] of 0.045 nM, an IC50 [2] of 15.3 nM and an IC50 (pSTAT5/GM-CSF) greater than 10000 nM. For the same molecule, the “Selectivity fold (TYK2/JAK2)” value (pSTAT5/GM-CSF) was greater than 653 fold.

`CO[C@H](C)COc1cc(Nc2cc(NC(C)=O)ncc2-c2ccn(C)n2)nc(S(C)(=O)=O)c1` [Example J14, (R)-N-(4-((4-(2-methoxypropoxy)-6-(methylsulfonyl)pyridin-2-yl)amino)-5-(1-methyl-1H-pyrazol-3-yl)pyridin-2-yl)acetamide] gave an IC50 [1] of 0.033 nM, an IC50 [2] of 0.792 nM and an IC50 (pSTAT5/GM-CSF) greater than 10000 nM. The “Selectivity fold (TYK2/JAK2)” value (pSTAT5/GM-CSF) was greater than 12626 fold.

`CC(=O)Nc1cc(Nc2cc(O[C@H]3C[C@H](O)C3)cc(S(C)(=O)=O)n2)c(-c2ccc(C(C)(C)O)cn2)cn1` [Example H10] was tested, and the IC50 [1] was 0.017 nM, the “Selectivity fold (TYK2/JAK2)” value [2] was greater than 607 fold and the IC50 [2] was 16.4 nM. For the same molecule, the IC50 (pSTAT5/GM-CSF) was greater than 10000 nM.

Molecule `CC(=O)Nc1cc(Nc2cc(OCC(C)O)cc(S(C)(=O)=O)n2)c(-c2ccn(C)n2)cn1` (stereo not shown) [Example J24, N-(4-((4-(2-hydroxypropoxy)-6-(methylsulfonyl)pyridin-2-yl)amino)-5-(1-methyl-1H-pyrazol-3-yl)pyridin-2-yl)acetamide] has an IC50 [1] of 0.028 nM, an IC50 [2] of 6.05 nM and an IC50 (pSTAT5/GM-CSF) greater than 10000 nM. The “Selectivity fold (TYK2/JAK2)” value (pSTAT5/GM-CSF) was greater than 1652 fold.

With `CC(=O)Nc1cc(Nc2cc(C)cc(S(C)(=O)=O)n2)c(-c2ccco2)cn1` [Example A9, N-(5-(furan-2-yl)-4-((4-methyl-6-(methylsulfonyl)pyridin-2-yl)amino)pyridin-2-yl)acetamide] the IC50 [1] was 0.041 nM, the “Selectivity fold (TYK2/JAK2)” value [2] was greater than 7518 fold and the IC50 [2] was 1.33 nM. For the same molecule, the IC50 (pSTAT5/GM-CSF) was greater than 10000 nM.

Work on `CC(=O)Nc1cc(Nc2cc(OC(C)C)cc(S(C)(=O)=O)n2)c(-c2cc(C)n(C)n2)cn1` [Example N2, N-(5-(1,5-dimethyl-1H-pyrazol-3-yl)-4-((4-isopropoxy-6-(methylsulfonyl)pyridin-2-yl)amino)pyridin-2-yl)acetamide] yielded an IC50 [1] of 0.021 nM, an IC50 [2] of 0.641 nM and an IC50 (pSTAT5/GM-CSF) greater than 10000 nM. For the same molecule, the “Selectivity fold (TYK2/JAK2)” value (pSTAT5/GM-CSF) was greater than 15600 fold.
